These results are taken from US20230330059A1, “3-PHENYL-2H-CHROMENE DERIVATIVE AND PHARMACEUTICAL COMPOSITION FOR PREVENTING OR TREATING ALZHEIMER'S, CONTAINING SAME” (NEUROBIONET, INC., priority 2020, published 2023).

Structures are written as SMILES.

The test system of data set [1] is primary microglial cells treated with beta amyloid oligomer (AB1-40). Description: Cell viability of primary microglia treated with beta amyloid oligomer. Format: cell-based, ICR mice. The settings on record: 5 µM for 1 hour, then AB1-40 10 µM 24 hours; FIG. 15. As to the method: Mouse-derived microglia (BV2 cells) purchased from the Korean Cell Line Bank were seeded at a density of 4x10^5 cells/well into 96-well plates, each well containing DMEM (Dulbecco’s Modified Eagle’s Media) supplemented with 10% FBS and 1% antibiotics, and stabilized by incubation for 24 hours. Thereafter, the cells were treated for 24 hours with various concentrations (0.5, 1, and 5 µM) of daidzein, o-desmethylangolensin (O-DMA), S-equal, SPA1413, and SPA1426. After removal of the medium, the cells were treated 0.5 mg/ml 3-(4,5-dimethylthiazol-2-yl)-2,5-diphenyltetrazolium bromide (MTT) solution 1 hour. The reduced formazan was dissolved in 150 µl of dimethyl sulfoxide (DMSO) and absorbance was read at 570 nm in a microspectrophotometer to determine cell viability. Cell viability of the cells treated with each sample was determined relative to that of the untreated normal control (Control), which was set to be 100%, and the results are depicted in FIGS. 3 and 4 (upper).
Primary microglial cells isolated from the brain of 1-year-old ICR mice were seeded at a density of 2x10^5 cells/well into 96-well plates and stabilized for 24 hours. Thereafter, the cells were treated with 5 µM of daidzein, S-equal, SPA1413, or SPA1426 for 1 hour and then with beta amyloid oligomer (AB1-40, 10 µM) for 24 hours at 37° C. Cell viability was assayed in the same manner as in Experimental Example 2.

The subject of a further data set is HEK293 cells. Description: MTT cytotoxicity in HEK293 cells. Format: cell-based. The settings on record: HEK293 cells, 1, 5 and 10 µM, 24 hours; FIG. 16. As for the experimental part:
HEK293 cells and the HEK293 cells overexpressing the dementia gene PSEN1 were seeded at a density of 2x10^5 cells/well into 96-well plates containing a DMEM medium and stabilized overnight, following by treating the cells with various concentrations (1, 5, and 10 µM) of the sample (SPA1413) for 24 hours. After removal of the culture medium, a 0.5 mg/ml MTT solution was added in an amount of 100 µl to each well and incubated at 37° C. for at least one hour in an incubator. The MTT was removed and 200 µl of DMSO was added to each well to dissolve the formazan. Absorbance was read at 540 nm on an ELISA reader to determine whether or the sample was toxic to the cells.

Data set [2] concerns 5xFAD mice. Description: Novel object recognition test. Format: in vivo, mouse. Particulars: 10 mg/kg orally once a day for 1 month, between groups, FIG. 20. As to the method:
(§1) The experiment was conducted with 5X-FAD transgenic mice having Alzheimer’s disease introduced therein. The 5X FAD mouse is an animal model of Alzheimer’s disease with all the human AD-linked mutations: Swedish (K670N/ […]), Florida (1716V) and London (V7171) in APP (695) and M146L in Presenilin 1
(§2) 5xFAD mice were purchased from Jackson Lab and bred in and in through mating with C57B16/SJL F1 females, based on the information provided by the supplier. Through genotyping, the mice were divided into groups of 7-9 members, including normal groups (WT) and genetically modified groups (5xFAD): 4.5-month-old 5xFAD mice (Tg) and age-matched controls (WT). To the WT or Tg groups, a vehicle or SPA1413 was orally administered at a dose of 10 mg/kg once a day for 1 month. To test whether SPA1413 has a therapeutic effect on Alzheimer’s disease, the mice in 5 groups (WT-vehicle; WT-SPA1413 5xFAD-vehicle; 5xFAD-SPA1413; and 5xFAD-donepezil) were evaluated for cognitive ability.
For a novel object recognition test, the Ethovision XT 9 system was used to examine whether an animal was interested in a new object. […] An object newly recognizable to the animals was put into the box, and the time and frequency of staying near the object were measured to determine how interested the animals were in it. […]

The subject of data set [3] is 5xFAD mice. As to the kind of experiment: Passive avoidance test. Format: in vivo, mouse. Particulars: 10 mg/kg orally once a day for 1 month, FIG. 22. As for the experimental part: as §1, §2
Passive avoidance test: Memory impairment was evaluated using the passive avoidance test. […] After being trained to learn that an unpleasant stimulus was given thereto in the dark room, the mice were evaluated for memory for the corresponding content as step-through latency.

Data set [4] has as its system amyloid plaques in cortex and hippocampus of 5xFAD mice. Description: Immunohistochemical assay of amyloid plaques (6E10 antibody, Thioflavin S). The settings on record: 10 mg/kg, FIGS. 24 and 25. Format: in vivo, mouse. As to the method: as §2
After the animal behavior experiments, the brain tissues of the experimental animals were recovered, sectioned, and then stained with Thioflavin S for immunostaining chemistry using the 6E10 antibody.
Immunohistochemical staining is a technique for detecting specific proteins within tissues by staining the same. […] The stained tissues were observed through a fluorescence microscope, and the images are depicted in FIG. 23.
The quantitative analysis results of the images of the tissues stained with the 6E10 antibody and Thioflavin S are presented in FIGS. 24 and 25. Five experimental animals were selected from each group and analyzed. […]

Data set [5] has as its system oligomeric Aβ proteins in cortex and hippocampus of 5xFAD mice. As to the kind of experiment: Western blotting of oligomeric Aβ proteins in brain tissue. Particulars: 10 mg/kg, FIG. 28. Format: in vivo, mouse. As to the method: as §2
After the animal behavior experiments, the brain tissues of the experimental animals were recovered, the brain tissues in the cortex and hippocampus regions of one hemisphere were separated, frozen, and stored until use. The tissues were thawed on the test day and treated with a lysis solvent, followed by protein isolation and quantitation. […]
The images of the western blots analyzed for oligomeric Aβ proteins (60-70 kDa) in the cortex and hippocampus of 5xFAD-vehicle and 5xFAD-SPA1413 group animals are presented in FIG. 28, and the band intensity was analyzed and quantified using the image j program.
On the technique in general: A western blot detects proteins with antibodies after separation by electrophoresis.

`Oc1ccc(C2=Cc3ccc(O)cc3OC2)cc1` [SPA1413, 3-(4-Hydroxyphenyl)-2H-chromen-7-ol]: the “cell viability after beta amyloid oligomer treatment” value in data set [1] is “significantly increased in cell viability”. Further, the “cell viability (MTT)” value with HEK293 cells was “the same as or almost similar to the normal control group”. For the same compound, in the data set on 5xFAD mice [2], the total distance result is “no significant difference” and the velocity result was “no significant difference”. For the same compound, the step-through latency result in the data set with 5xFAD mice [3] was “significantly recovered”. In addition, the “amyloid plaques in the cortex and hippocampus” value in data set [4] is “significantly reduced”. For the same compound, in data set [5], the “level of oligomeric Aβ proteins (60-70 kDa) in the cortex and hippocampus” value was “significantly reduce”.
